In US20260174786A1, “A NITROGEN-CONTAINING SPIROCYCLIC COMPOUND, PHARMACEUTICAL COMPOSITION AND USE THEREOF” (Prime Gene Therapeutics Co., Ltd., priority 2022, published 2026):

Target: T1, hTRPV3 (Homo sapiens, UniProt Q8NET8)
T1 construct: expressed in transfected cells; host or cells: HEK-293
T1 sequence (Q8NET8 1-790): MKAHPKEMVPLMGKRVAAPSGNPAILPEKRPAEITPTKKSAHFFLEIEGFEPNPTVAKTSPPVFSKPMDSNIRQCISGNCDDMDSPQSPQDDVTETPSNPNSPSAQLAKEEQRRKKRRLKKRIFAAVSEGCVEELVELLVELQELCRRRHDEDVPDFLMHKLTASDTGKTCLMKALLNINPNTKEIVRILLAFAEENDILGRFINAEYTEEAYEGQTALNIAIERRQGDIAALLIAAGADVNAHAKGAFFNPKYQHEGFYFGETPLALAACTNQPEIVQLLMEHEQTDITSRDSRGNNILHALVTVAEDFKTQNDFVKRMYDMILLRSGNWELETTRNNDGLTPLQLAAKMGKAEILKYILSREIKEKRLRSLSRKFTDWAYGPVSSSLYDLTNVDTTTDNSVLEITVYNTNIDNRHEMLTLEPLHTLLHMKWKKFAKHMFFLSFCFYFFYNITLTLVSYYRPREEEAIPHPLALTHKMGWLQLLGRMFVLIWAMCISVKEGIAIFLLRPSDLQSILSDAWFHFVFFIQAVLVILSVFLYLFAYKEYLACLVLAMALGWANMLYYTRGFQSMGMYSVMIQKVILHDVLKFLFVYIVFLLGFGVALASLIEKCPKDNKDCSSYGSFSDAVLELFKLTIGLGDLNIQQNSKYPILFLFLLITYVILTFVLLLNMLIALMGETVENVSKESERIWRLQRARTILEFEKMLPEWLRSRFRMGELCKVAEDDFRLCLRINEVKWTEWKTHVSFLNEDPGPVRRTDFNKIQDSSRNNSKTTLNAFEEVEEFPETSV
Assay: Whole cell patch clamp inhibition rate test on HEK-293 cells instantaneously expressing TRPV3
Assay type: cell-based
Conditions: HEK293; hTRPV3, single concentration 0.3 μM
Summary of the method: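 HEK-293 cells transiently transfected with TRPV3, recorded next-but-one day by whole-cell patch clamp at room temperature: holding −80 mV, ramp −100 to 100 mV over 100 ms every 5 s, peak current monitored. Ascending concentrations perfused, 5 min each; each cell its own control, at least two cells per concentration.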

Row | Structure (SMILES) | inhibition at 0.3 µM
1 | O=C(c1ccc(F)cn1)N1CCC2(C[C@@H](O)c3cc(-c4ccccc4C4CC4)ccc32)C1 (stereo partly drawn) [Example 45, ((3R)-5-(2-cyclopropylphenyl)-3-hydroxy-2,3-dihydrospiro[indene-1,3′-pyrrolidine]-1′-yl)(5-fluoropyridin-2-yl) ketone] | 70 to 100%
2 | CC(C)c1ccccc1-c1ccc2c(c1)[C@H](O)C[C@@]21CCN(C(=O)c2csc(Cl)n2)C1 [Example 33, (2-chlorothiazol-4-yl)((1S,3R)-3-hydroxy-5-(2-isopropylphenyl)-2,3-dihydrospiro[indene-1,3′-pyrrolidine]-1′-yl)ketone] | 70 to 100%
3 | CC(C)c1ccccc1-c1ccc2c(c1)[C@@H](O)C[C@@]21CCN(C(=O)c2csc(Cl)n2)C1 [Example 35, (2-chlorothiazol-4-yl)((1S,3S)-3-hydroxy-5-(2-isopropylphenyl)-2,3-dihydrospiro[indene-1,3′-pyrrolidine]-1′-yl)ketone] | < 25%
4 | O=C(c1cccc(C2CC2)n1)N1CC[C@]2(C[C@@H](O)c3cc(-c4ccccc4C4CC4)ccc32)C1 [Example 38, ((1R,3R)-5-(2-cyclopropylphenyl)-3-hydroxy-2,3-dihydrospiro[indene-1,3′-pyrrolidine]-1′-yl)(6-cyclopropylpyridin-2-yl) ketone] | < 25%
5 | CC(C)c1ccccc1-c1ccc2c(c1)C(O)CC21CCN(C(=O)c2ncccn2)C1 (stereo not drawn) [Example 66, (3-hydroxy-5-(2-isopropylphenyl)-2,3-dihydrospiro[indene-1,3′-pyrrolidine]-1′-yl)(pyrimidin-2-yl)ketone] | 25 to 50%
6 | CCc1nccnc1Oc1ccc2c(c1)C(O)CC21CCN(C(=O)c2ccc(F)cn2)C1 (stereo not drawn) [Example 105, (5-((3-ethylpyrazin-2-yl)oxy)-3-hydroxy-2,3-dihydrospiro[indene-1,3′-pyrrolidine]-1′-yl)(5-fluoropyridin-2-yl] ketone] | < 25%
7 | CC(C)c1ccccc1-c1ccc2c(c1)[C@H](O)C[C@]21CCN(C(=O)c2csc(Cl)n2)C1 [Example 34, (2-chlorothiazol-4-yl)((1R,3R)-3-hydroxy-5-(2-isopropylphenyl)-2,3-dihydrospiro[indene-1,3′-pyrrolidine]-1′-yl)ketone] | < 25%
8 | O=C(c1ccc(F)cn1)N1CC[C@]2(C[C@@H](O)c3cc(-c4ccccc4C4CC4)ccc32)C1 [Example 22, ((1R,3R)-5-(2-cyclopropylphenyl)-3-hydroxy-2,3-dihydrospiro[indene-1,3′-pyrrolidine]-1′-yl)(5-fluoropyridin-2-yl)ketone] | < 25%
9 | COc1ncnc(OC)c1C(=O)N1CCC2(CC(O)c3cc(-c4ccccc4C4CC4)ccc32)C1 (stereo not drawn) [Example 56, (5-(2-cyclopropylphenyl)-3-hydroxy-2,3-dihydrospiro[indene-1,3′-pyrrolidine]-1′-yl)(4,6-dimethoxypyrimidin-5-yl)ketone] | < 25%
10 | O=C(c1ccc(F)cn1)N1CCC2(CC(O)c3cc(-c4ccccc4Cl)ccc32)C1 (stereo not drawn) [Example 81, (5-(2-chlorophenyl)-3-hydroxy-2,3-dihydrospiro[indene-1,3′-pyrrolidine]-1′-yl)(5-fluoropyridin-2-yl) ketone] | 50 to 70%
11 | CC(C)c1ccccc1-c1ccc2c(c1)[C@@H](O)C[C@@]21CCN(C(=O)c2cccc(C3CC3)n2)C1 [Example 43, (6-cyclopropylpyridin-2-yl)((1S,3S)-3-hydroxy-5-(2-isopropylphenyl)-2,3-dihydrospiro[indene-1,3′-pyrrolidine]-1′-yl)ketone] | < 25%
12 | CC(C)c1ccccc1-c1ccc2c(c1)C(O)CC21CCN(C(=O)c2ccc(F)cc2)C1 (stereo not drawn) [Example 61, (4-fluorophenyl)(3-hydroxy-5-(2-isopropylphenyl)-2,3-dihydrospiro[indene-1,3′-pyrrolidine]-1′-yl)ketone] | 70 to 100%
13 | CC(C)c1ccccc1-c1ccc2c(c1)CCC21CCN(C(=O)c2ccc(F)cn2)C1 (stereo not drawn) [Example 120, (5-fluoropyridin-2-yl)(5-(2-isopropylphenyl)-2,3-dihydrospiro[indene-1,3′-pyrrolidine]-1′-yl) ketone] | < 25%
14 | CCc1ccccc1-c1ccc2c(c1)C(O)CC21CCN(C(=O)c2ccc(F)cn2)C1 (stereo not drawn) [Example 80, (5-(2-ethylphenyl)-3-hydroxy-2,3-dihydrospiro[indene-1,3′-pyrrolidine]-1′-yl)(5-fluoropyridin-2-yl) ketone] | 70 to 100%
15 | CC1(O)CC2(CCN(C(=O)c3ccc(F)cn3)C2)c2ccc(-c3ccccc3C3CC3)cc21 (stereo not drawn) [Example 5, (5-(2-cyclopropylphenyl)-3-hydroxy-3-methyl-2,3-dihydrospiro[indene-1,3′-pyrrolidine]-1′-yl)(5-fluoropyridin-2-yl) ketone] | < 25%
16 | CC(C)c1ccccc1-c1ccc2c(c1)[C@H](O)C[C@]21CCN(C(=O)c2cccc(C3CC3)n2)C1 [Example 42, (6-cyclopropylpyridin-2-yl)((1R,3R)-3-hydroxy-5-(2-isopropylphenyl)-2,3-dihydrospiro[indene-1,3′-pyrrolidine]-1′-yl)ketone] | < 25%
17 | [2H]C1(O)CC2(CN(C(=O)c3ccc(F)cn3)C([2H])([2H])C2)c2ccc(-c3ccccc3C3CC3)cc21 (stereo not drawn) [Example 11, (5-(2-cyclopropylphenyl)-3-hydroxy-2,3-dihydrospiro[indene-1,3′-pyrrolidine]-1′-yl-3,5′,5′-d3)(5-fluoropyridin-2-yl) ketone] | 70 to 100%
18 | O=C(c1ccc(F)cn1)N1CCC2(CC(O)c3cc(-c4ccccc4OC(F)(F)F)ccc32)C1 (stereo not drawn) [Example 82, (5-fluoropyridin-2-yl)(3-hydroxy-5-(2-(trifluoromethoxy)phenyl)-2,3-dihydrospiro[indene-1,3′-pyrrolidine]-1′-yl) ketone] | 50 to 70%
19 | O=C(c1ccc(F)cn1)N1CCC2(CC(O)c3cc(-c4cc(F)ccc4C4CC4)ccc32)C1 (stereo not drawn) [Example 83, (5-(2-cyclopropyl-5-fluorophenyl)-3-hydroxy-2,3-dihydrospiro[indene-1,3′-pyrrolidine]-1′-yl)(5-fluoropyridin-2-yl) ketone] | 70 to 100%
20 | CC(=O)c1cc(F)ccc1-c1ccc2c(c1)C(O)CC21CCN(C(=O)c2ccc(F)cn2)C1 (stereo not drawn) [Example 95, 1-(5-fluoro-2-(1′-(5-fluoropyridoyl)-3-hydroxy-2,3-dihydrospiro[indene-1,3′-pyrrolidine]-5-yl)phenyl)ethan-1-one] | 70 to 100%
21 | [2H]C1(O)CC2(CCN(C(=O)c3ccc(F)cn3)C2)c2ccc(-c3ccccc3C3CC3)cc21 (stereo not drawn) [Example 12, (5-(2-cyclopropylphenyl)-3-hydroxy-2,3-dihydrospiro[indene-1,3′-pyrrolidine]-1′-yl-3-d)(5-fluoropyridin-2-yl) ketone] | 70 to 100%
22 | O=C(c1ccc(F)cn1)N1CC[C@@]2(C[C@H](O)c3cc(-c4ccccc4C4CC4)ccc32)C1 [Example 24, ((1S,3S)-5-(2-cyclopropylphenyl)-3-hydroxy-2,3-dihydrospiro[indene-1,3′-pyrrolidine]-1′-yl)(5-fluoropyridin-2-yl)ketone] | < 25%
23 | CC(C)(O)c1ccccc1-c1ccc2c(c1)C(O)CC21CCN(C(=O)c2ccc(F)cn2)C1 (stereo not drawn) [Example 89, (5-fluoropyridin-2-yl)(3-hydroxy-5-(2-(2-hydroxypropyl-2-)phenyl)-2,3-dihydrospiro[indene-1,3′-pyrrolidine]-1′-yl) ketone] | 25 to 50%
24 | O=C(c1ccc(F)cn1)N1CCC2(CC1)CC(O)c1cc(-c3ccccc3C3CC3)ccc12 (stereo not drawn) [Example 3, (5-(2-cyclopropylphenyl)-3-hydroxy-2,3-dihydrospiro[indene-1,4′-piperidine]-1′-yl)(5-fluoropyridin-2-yl) ketone] | 25 to 50%
25 | Cc1nc(C(=O)N2CCC3(CC(O)c4cc(-c5ccccc5C5CC5)ccc43)C2)ccc1O (stereo not drawn) [Example 13, (5-(2-cyclopropylphenyl)-3-hydroxy-2,3-dihydrospiro[indene-1,3′-pyrrolidine]-1′-yl)(5-hydroxy-6-methylpyridin-2-yl) ketone] | < 25%
26 | O=C(c1ccc(F)cn1)N1CCC2(CCC(O)c3cc(-c4ccccc4C4CC4)ccc32)C1 (stereo not drawn) [Example 1, (6-(2-Cyclopropylphenyl)-4-hydroxy-3,4-dihydro-2H-spiro[naphthalene-1,3′-pyrrolidine]-1′-yl) (5-fluoropyridin-2-yl) ketone] | < 25%
27 | Cc1cnc(C(=O)N2CCC3(CC(O)c4cc(-c5ccccc5C(C)C)ccc43)C2)cn1 (stereo not drawn) [Example 65, (3-hydroxy-5-(2-isopropylphenyl)-2,3-dihydrospiro[indene-1,3′-pyrrolidine]-1′-yl)(5-methylpyrazin-2-yl)ketone] | 70 to 100%
